In patent US12655169B2, “Arabinose and preparation and use thereof” (THOMSON BIOTECH (XIAMEN) PTE. LTD., priority 2022, dated 2026):
Read-outs that look alike come from different tables or passages of the source.

Experiments:
SPF mice = assay: Bowel preparation in mice; format: in vivo
Experimental: 5.1 Experimental animals and feeding thereof: SPF (Specific pathogen free) mice, 6 weeks old; normal feed was D12450-B feed: 67.35 wt % carbohydrates, 19.2 wt % crude protein, 4.3 wt % fat. The temperature of the room was kept at 24-26° C. with humidity at 40-60%.
5.2 Experimental method and procedure:
The SPF mice were randomly divided into a blank control group, a positive control group and a treatment group, 20 mice per group, half being male and half female. Administration method: Animals in each group were fasted (water was accessible) from last 22:00 before the day of experiment, were each given ⅓ the calculated amount of drug by intragastrical administration at 7:00, 9:00 and 11:00 on the day of experiment, were each given 0.1 mL of purified water at 12:00, 13:00 and 14:00, and were dissected 3.5 h after the last administration.

[1] = Granularity distribution of sample (standard sieve); format: physicochemical; settings: for Granularity distribution of sample (standard sieve) 20-80 mesh / Granularity distribution of sample (standard sieve) <80 mesh / Granularity distribution of sample (standard sieve) >20 mesh: Example 8 samples, seed crystal specification and fed-batch time varied
Experimental: 1 kg of L-arabinose starting material was dissolved in 1.2 kg of purified water at 60° C. After the solution was completely clear, 1 g of activated carbon ([…] of the L-arabinose) was added. The mixture was incubated at 60° C. for 30 min and then subjected to suction filtration under vacuum successively through 25 μm and 0.45 μm filter membranes to remove the activated carbon, and a clear filtered sugar liquid (about 1800 mL in volume) was obtained. About 800 mL of the clear filtered sugar liquid was added to a three-necked flask, and stirred and evaporated under reduced pressure in a water bath set at a temperature of 62° C. until the sugar degree reached 58-60% Brix. A proper amount of L-arabinose was added as seed crystals (as shown in Table 8-1 below, seed crystal with different specifications was selected: 40-60 mesh, 16.5 g; 60-80 mesh, 6 g; 80-100 mesh, 1.5 g). The mixture was stirred (double-layered type of stirring, with two-half-crescent type for the lower layer and three-bladed propeller type for the upper layer) at a rate of 90-110 rpm until the seed crystal was completely dispersed. Then the sugar liquid was added at a rate of 50-100 mL/h in a fed-batch manner for a time period of 12/18 h. After the fed-batch addition was completed, the concentrating was continued for 1-2 h. It was about 14 h from the time the seed crystal was added to the time of discharging.
According to the results shown in Table 8-1, the specific surface area of the seed crystal of 80-100 mesh is relatively […] compared with that of the seed crystal of other specifications (as shown in Table 8-2), but the particle size distribution of the sample obtained by experiment is relatively uniform: the proportion of 20-80 mesh is more than 89.7%, and the maximum proportion is more than 90%, which fully complies with the requirements of the existing pharmacopoeia (Chinese pharmacopoeia (2020)) for granules: granules cannot pass through a No. 1 sieve (10 mesh, 2000 μm) and the total quantity of granules which can pass through a No. 5 sieve (80 mesh, pore size of […]) should not exceed 15%.

[2] = Particle size parameter test (BT-2900 image particle size analysis system); format: physicochemical; settings: for Average particle size / D10 / D50 / D90: quantity distribution, image particle size analysis
From the text: (§1) Example 4. Particle Size Parameters and Powder Characteristics (Quantity Distribution) of L-Arabinose

Humans = assay: Bowel preparation in humans; format: in vivo
Experimental: Administration Sample: L-Arabinose Prepared in Example 1 Subject: weighing 73 kg Administration Regimen: The subject drank water normally on an empty stomach after getting up in the morning. At 10:06, the subject dissolved 30 g of L-arabinose in about 100-150 mL of mineral water and consumed the solution in about 5 min.

[3] = Flowability test (particle and powder characteristic analyzer, FT-102D); format: physicochemical
From the text: as §1
Example 13. Performance Test Results for the Granules of the Present Disclosure

[4] = Saturation curve and crystallization curve of L-arabinose; format: physicochemical; settings: for Crystallization mass concentration: cooling 1 °C/h, stirring 100 rpm; for Saturation mass concentration: water
Experimental: A round-bottom flask was plated in a constant-temperature box with temperature control. To a three-necked round-bottom flask (one flask mouth was plugged with a plastic stopper as a sampling mouth, one flask mouth was used for placing a stirrer, and one flask mouth was used for temperature sensing) were added a certain amount of ionized water and excessive L-arabinose crystal (prepared according to the method of Example 10). The mixture was stirred at 40° C., 49° C., 53° C., 58° C. and 65° C. for 3 h per temperature point, and then let stand for 4 h to allow the undissolved L-arabinose crystal to completely settle. Then the supernatant was collected and filtered through a microporous filter membrane (for filtration using a small injection needle in the constant-temperature box to eliminate the effect of temperature change). The resulting clear liquid was used for concentration determination. A saturation curve was plotted for arabinose: y=0.5927x+23.089 (correlation coefficient R 2=0.99) (see FIG. 4). Clear sugar liquids in which corresponding mass concentrations of L-arabinose were dissolved was prepared, then slowly cooled (1° C./h), and cooled at a constant rate (with stirring at 100 rpm). The crystallization temperature of the sugar liquids with different mass concentrations was observed and recorded. A crystallization curve was plotted for arabinose: y=0.4163x+40.413 (correlation coefficient R 2=1) (see FIG. 4 and Table 15-1).

[5] = In vitro osmotic pressure test (Vapro Pressure Osmometer); format: physicochemical; settings: versus sorbitol solution at the same mass concentration 30%
From the text: Instrument: Vapro Pressure Osmometer
Materials: L-Arabinose (Prepared According to the Method of Example 1); Sorbitol (Commercially Available Chinese Medicinal Agent)
Procedure: The 4 numbered solutions were each prepared according to the material proportions shown in Table 2 and stirred until they were all clear and transparent.

[6] = listed as Example 10 sample of batch 2ª

Granularity distribution of sample (standard sieve) 20-80 mesh [1] | Granularity distribution of sample (standard sieve) <80 mesh [1] | Granularity distribution of sample (standard sieve) >20 mesh [1] | Average particle size [2] [μm] | D10 [2] [μm] | D50 [2] [μm] | D90 [2] [μm] | Bulk density [3] | Compressibility [3] | Floodability index [3] | Flowability (Hausner ratio) [3] | Hausner ratio [3] | Tap density [3] | Angle of repose [3] | Carr flowability index [3] | Compound | further results
71.2% | 5.4% | 23.4% | 149 | 49 | 138 | 261 | 0.7 g/mL | 17.1% | 75.0 | Good | 1.2 | 0.85 g/mL | – | – | O[C@@H]1[C@@H](O)[C@@H](O)OC[C@@H]1O [Example 1, β-L-(+)-arabinose] | Dosage relative to the positive control group to achieve the same effect (SPF mice; 12 g/kg vs PEG 31.5 g/kg): 38%; Residue in the rectum and colon after the dissection (SPF mice; dissected 3.5 h after the last administration, L-arabinose 12 g/kg, PEG 31.5 g/kg): no residue was left in the rectum and colon; Stools observed before the dissection (SPF mice; intragastrical, three doses, L-arabinose 12 g/kg, PEG 31.5 g/kg): Watery and loose stools; span ([2]; particle size analysis): 0.985; Stool passed, first bathroom visit (Humans; 30 g oral, at 10:42 (dose at 10:06)): loose stool; Stool passed, second bathroom visit (Humans; 30 g oral, at 11:11): watery stool; Stool passed, third bathroom visit (Humans; 30 g oral, at 11:55): watery stool with little residue; Stool passed, fourth bathroom visit (Humans; 30 g oral, at 13:27): light yellow watery stool without residue; Time from administration to first stool (Humans; one subject, 30 g oral in 100-150 mL water): About 40 min; Angle of repose ([3]; in ° (unit assumed)): 40.01
81.6 | 1.5 | 16.9 | 125 | 43 | 109 | 232 | 0.56 | 24.3 | 75.0 | Good | 1.2 | 0.74 | 38.76 | 99 | O=C[C@H](O)[C@@H](O)[C@@H](O)CO [Example 3, L-arabinose] | –
– | – | – | – | – | – | – | 0.68 | 15.9 | 75.0 | Good | 1.2 | 0.81 | 30.95 | 102.5 | O=C[C@H](O)[C@@H](O)[C@@H](O)CO [Example 10 batch 2, L-arabinose] | 20-80 mesh proportion of sample ([1]; post-centrifugation sampling-manual material spreading and drying oven drying): 96.4%; 20-80 mesh proportion of sample ([1]; screw feeding-back-mixing bed drying): 79.8%; Average particle size [2, 6]: 129.2 μm; D10 [2, 6]: 41.88 μm; D50 [2, 6]: 116.4 μm; D90 [2, 6]: 237.9 μm
– | – | – | – | – | – | – | – | – | – | – | – | – | – | – | O[C@@H]1[C@@H](O)[C@@H](O)OC[C@@H]1O [L-arabinose, β-L-(+)-arabinose] | Supersaturation coefficient ([4]; 40 °C): 1.233; Crystallization mass concentration ([4]; 40 °C): 57.07%; Supersaturation coefficient ([4]; 49 °C): 1.154; Crystallization mass concentration ([4]; 49 °C): 60.81%; Supersaturation coefficient ([4]; 53 °C): 1.134; Crystallization mass concentration ([4]; 53 °C): 62.48%; Supersaturation coefficient ([4]; 58 °C): 1.135; Crystallization mass concentration ([4]; 58 °C): 64.56%; Supersaturation coefficient ([4]; 65 °C): 1.097; Crystallization mass concentration ([4]; 65 °C): 67.47%; Saturation mass concentration ([4]; 40 °C): 46.3%; Saturation mass concentration ([4]; 49 °C): 52.7%; Saturation mass concentration ([4]; 53 °C): 55.1%; Saturation mass concentration ([4]; 58 °C): 56.9%; Saturation mass concentration ([4]; 65 °C): 61.5%; Percent increase in osmotic pressure [5]: 22.8%
